Results taken from the NIST ThermoML archive (doi:10.1021/je700260f).

Conditions: 323.14 K, Liquid, Vibrating tube method

FC(C(F)(F)F)C(F)(F)F [1,1,1,2,3,3,3-heptafluoropropane]
Conditions	mass density [kg/m3]
10190 kPa	1363.3
10206 kPa	1363.7
10232 kPa	1363.8
10249 kPa	1363.9
10273 kPa	1364
10288 kPa	1364
10306 kPa	1364.3
10331 kPa	1364.4
10619 kPa	1366.6
10640 kPa	1366.6
10664 kPa	1366.8
10682 kPa	1367
10704 kPa	1367.2
10722 kPa	1367.2
10915 kPa	1368.6
10935 kPa	1368.7
10959 kPa	1368.8
10980 kPa	1369
10998 kPa	1369.1
11021 kPa	1369.4
11042 kPa	1369.4
11057 kPa	1369.5
11076 kPa	1369.7
11096 kPa	1369.7
11117 kPa	1370
11135 kPa	1370.2
11157 kPa	1370.3
11177 kPa	1370.4
11197 kPa	1370.5
11213 kPa	1370.6
11232 kPa	1370.9
11253 kPa	1370.9
11267 kPa	1370.9
11292 kPa	1371.1
11315 kPa	1371.3
11336 kPa	1371.4
11363 kPa	1371.8
11565 kPa	1373.2
11585 kPa	1373.1
11609 kPa	1373.4
11632 kPa	1373.4
11649 kPa	1373.5
11666 kPa	1373.6
11689 kPa	1373.9
11707 kPa	1374
11729 kPa	1374.2
11754 kPa	1374.2
11777 kPa	1374.4
11792 kPa	1374.5
11810 kPa	1374.6
11827 kPa	1374.8
11848 kPa	1374.9
11870 kPa	1375
11893 kPa	1375.2
11908 kPa	1375.3
11927 kPa	1375.4
11947 kPa	1375.6
11965 kPa	1375.6
11993 kPa	1375.7
12013 kPa	1376
12029 kPa	1376.1
12054 kPa	1376.2
12076 kPa	1376.4
12099 kPa	1376.6
12118 kPa	1376.8
12139 kPa	1376.8
12160 kPa	1377
12176 kPa	1376.9
12200 kPa	1377.2
12222 kPa	1377.4
12238 kPa	1377.4
12262 kPa	1377.6
12274 kPa	1377.8
12293 kPa	1377.8
12313 kPa	1377.9
12329 kPa	1378.1
12350 kPa	1378.1
12373 kPa	1378.3
12391 kPa	1378.5
12410 kPa	1378.6
12427 kPa	1378.8
12447 kPa	1378.8
12464 kPa	1378.9
12483 kPa	1379.1
12497 kPa	1379.2
12514 kPa	1379.4
12536 kPa	1379.3
12551 kPa	1379.4
12573 kPa	1379.6
12589 kPa	1379.7
12612 kPa	1379.9
12627 kPa	1380
12652 kPa	1380.2
12677 kPa	1380.3
12736 kPa	1380.7
12755 kPa	1380.8
13031 kPa	1382.6
13052 kPa	1382.8
13077 kPa	1382.9
13095 kPa	1383
13117 kPa	1382.9
13141 kPa	1383.4
13161 kPa	1383.4
13263 kPa	1384.2
13295 kPa	1384.2
13310 kPa	1384.3
13334 kPa	1384.5
13348 kPa	1384.5
13370 kPa	1384.7
13389 kPa	1384.9
13415 kPa	1385
13433 kPa	1385
13456 kPa	1385.2
13476 kPa	1385.4
13497 kPa	1385.5
13522 kPa	1385.7
13541 kPa	1385.7
13570 kPa	1385.9
13595 kPa	1386
13614 kPa	1386.2
13637 kPa	1386.4
13663 kPa	1386.4
13682 kPa	1386.6
13710 kPa	1386.8
13870 kPa	1387.7
14734 kPa	1393
14760 kPa	1393
14781 kPa	1393.3
14798 kPa	1393.4
14818 kPa	1393.6
14842 kPa	1393.7
14866 kPa	1393.6
14883 kPa	1393.8
14902 kPa	1394
14919 kPa	1394.1
14940 kPa	1394.1
14959 kPa	1394.3
14983 kPa	1394.4
15001 kPa	1394.4
15028 kPa	1394.7
15049 kPa	1394.9
15077 kPa	1395
15098 kPa	1395
15122 kPa	1395.1
15150 kPa	1395.5
15173 kPa	1395.6
15198 kPa	1395.7
15219 kPa	1395.7
15265 kPa	1396.1
15284 kPa	1396.2
15307 kPa	1396.3
15326 kPa	1396.4
15346 kPa	1396.5
15368 kPa	1396.6
15389 kPa	1396.7
15413 kPa	1396.8
15436 kPa	1397
15456 kPa	1397.1
15488 kPa	1397.3
15504 kPa	1397.5
15524 kPa	1397.5
15550 kPa	1397.7
15575 kPa	1397.8
15602 kPa	1398
15630 kPa	1398.1
15655 kPa	1398.2
15678 kPa	1398.5
16094 kPa	1400.8
16115 kPa	1400.9
16141 kPa	1401
16161 kPa	1401.1
16188 kPa	1401.4
17246 kPa	1407
17274 kPa	1407.3
17301 kPa	1407.6
17357 kPa	1407.6
17403 kPa	1407.9
17424 kPa	1408
17446 kPa	1408.2
17472 kPa	1408.3
17493 kPa	1408.4
17519 kPa	1408.6
17539 kPa	1408.5
17574 kPa	1408.8
17597 kPa	1408.9
17623 kPa	1409
17646 kPa	1409.2
17666 kPa	1409.3
17693 kPa	1409.4
17717 kPa	1409.6
17741 kPa	1409.7
17761 kPa	1409.8
17791 kPa	1410
17819 kPa	1410.1
17843 kPa	1410.3
17864 kPa	1410.4
17920 kPa	1410.7
18206 kPa	1412.2
18259 kPa	1412.5
18289 kPa	1412.6
18339 kPa	1412.9
18360 kPa	1412.9
18390 kPa	1413.2
18414 kPa	1413.2
18445 kPa	1413.4
